This is an account of results in patent US8022205B2, “Pyrimidine derivatives as PI3K inhibitor and use thereof” (Chugai Seiyaku Kabushiki Kaisha, priority 2006, dated 2011).

The term IC50 denotes the concentration at which inhibition is half-maximal.

For one assay, the target named is human PI3K(p110α/p85α) (Homo sapiens, UniProt P42336). The assay can be described thus: Measurement of PI3K inhibitory activity (AlphaScreen GST Detection Kit). Conditions: 10 μM ATP, 4 μM PI(4,5)P2, read-out: Enzyme inhibitory activity (IC50, μM) PI3K α. The format is biochemical. The protocol:
The inhibitory activity of compounds of the present invention represented by formula (I) were measured with human PI3K(p110α/p85α) prepared in a baculovirus expression system using the AlphaScreen GST Detection Kit (Perkin Elmer, Inc.). A predetermined concentration of the compound dissolved in dimethylsulfoxide (DMSO) and PI3K were mixed in a 384-well assay plate and after allowing to stand for 20 minutes at room temperature, 4 μM PI(4,5)P2 (Echelon Corporation) and 10 μM ATP (5 mM Hepes, pH 7.5, 2.5 mM MgCl2) were added to initiate the reaction. After reacting for 15 minutes at 37° C., GST-GRP1 expressed and purified from Escherichia coli, Anti-GST Acceptor Beads (Perkin Elmer, Inc.), Streptavidin Donor Beads (Perkin Elmer, Inc.) and biotin-PI(3,4,5) P3 (Echelon Corporation) (10 mM Tris-HCl pH 7.4, 150 mM NaCl, 7.5 mM EDTA, 1 mM DTT, 0.1% Tween 20) were added, and after allowing to stand for 1 hour at room temperature, light at 520 to 620 nm emitted as a result of exciting with light at 680 nm was measured with the Envision measuring instrument (Perkin Elmer, Inc.).
Test Example 1 described above can be performed according to “Analytical Biochemistry, 2003, 313, 234-245; Alexander Gray et al”.
(Bead proximity is the source of the signal in Alpha formats.)

The test system of assay [1] is human colon cancer cell line HCT116. The assay can be described thus: Cell proliferation inhibitory activity (Cell Counting Kit-8), colon cancer HCT116. The format is cell-based. The note with it: HCT-116, 96 h, HCT116, 4 days. As for the experimental part:
(§1) The cell proliferation inhibitory activity was measured for compounds of the present invention represented by formula (I). Cancer cell proliferation inhibitory activity was measured using the Cell Counting Kit-8 (Dojindo). 2000 cells each of human colon cancer cell line HCT116 purchased from the American Type Culture Collection (Virginia, USA) were seeded into each well of a 96-well culture plate followed by the addition of a predetermined concentration of the compounds and cultivating in a CO2environment for 4 days at 37° C. On the fourth day of cultivating, the Cell Counting Kit-8 solution was added and absorbance (measuring wavelength: 450 nm, reference wavelength: 615 nm) was measured in accordance with the protocol provided with the kit.
(In general: Tetrazolium assays rely on reduction of a dye to a coloured formazan, in cell work by metabolically active cells.)

Assay [2] relates to human prostate cancer cell line PC3. Put plainly: Cell proliferation inhibitory activity (Cell Counting Kit-8), prostate cancer PC3. In kind it is cell-based. The note with it: 96 h, PC3, 4 days. The protocol: as §1
(§2) Cancer cell proliferation inhibitory activity was also measured for human lung cancer cell line NCI-H460 and human prostate cancer cell line PC3 purchased from the American Type Culture Collection. 1000 and 3000 cells of NCI-H460 and PC3, respectively, were seeded into each well of a 96-well culture plate followed by testing in the same manner as the human colon cancer cell line and calculating the percentage of cell proliferation inhibition at 2.5 μM.

For assay [3], the system named is human lung cancer cell line NCI-H460. Put plainly: Cell proliferation inhibitory activity (Cell Counting Kit-8), lung cancer NCI-H460. The format is cell-based. The note with it: 96 h, NCI-H460, 4 days, read-out: Cell proliferation inhibitory activity (% Inhibition at 2.5 μM) Non-small cell lung cancer (NCI-H460). The protocol:
as §1, §2

Counter-ions that a name gives are not always drawn.

Chain of human PI3K(p110α/p85α) (P42336 whole entry): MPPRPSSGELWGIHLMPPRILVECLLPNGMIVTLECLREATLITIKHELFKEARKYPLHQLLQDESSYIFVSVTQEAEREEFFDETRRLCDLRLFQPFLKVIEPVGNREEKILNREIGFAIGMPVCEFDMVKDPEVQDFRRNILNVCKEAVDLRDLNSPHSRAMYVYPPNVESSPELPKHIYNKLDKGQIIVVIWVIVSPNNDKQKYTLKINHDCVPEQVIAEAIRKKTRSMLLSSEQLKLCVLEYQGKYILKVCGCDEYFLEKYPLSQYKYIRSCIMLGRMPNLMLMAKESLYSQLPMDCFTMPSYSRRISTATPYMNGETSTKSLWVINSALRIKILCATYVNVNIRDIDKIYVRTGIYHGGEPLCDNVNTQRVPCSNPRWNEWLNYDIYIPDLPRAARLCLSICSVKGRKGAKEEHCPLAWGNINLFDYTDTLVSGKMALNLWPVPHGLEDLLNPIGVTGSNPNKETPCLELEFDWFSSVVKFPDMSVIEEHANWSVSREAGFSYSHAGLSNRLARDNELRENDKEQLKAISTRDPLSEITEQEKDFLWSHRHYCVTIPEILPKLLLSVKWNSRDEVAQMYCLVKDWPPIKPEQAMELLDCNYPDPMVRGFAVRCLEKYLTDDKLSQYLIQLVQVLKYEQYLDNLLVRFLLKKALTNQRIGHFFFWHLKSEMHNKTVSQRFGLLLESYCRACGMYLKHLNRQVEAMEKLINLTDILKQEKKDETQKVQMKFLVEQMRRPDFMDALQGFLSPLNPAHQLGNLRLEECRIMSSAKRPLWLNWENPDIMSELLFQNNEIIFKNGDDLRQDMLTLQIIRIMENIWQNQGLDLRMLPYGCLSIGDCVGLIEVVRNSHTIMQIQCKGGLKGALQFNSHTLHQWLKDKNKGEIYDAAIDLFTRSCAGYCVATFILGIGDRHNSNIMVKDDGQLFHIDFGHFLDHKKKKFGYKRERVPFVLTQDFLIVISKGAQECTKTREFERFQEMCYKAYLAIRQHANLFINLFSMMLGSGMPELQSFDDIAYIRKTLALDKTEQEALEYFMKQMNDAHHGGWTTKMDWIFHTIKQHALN
Chain of human PI3K(p110α/p85α) (P27986 whole entry partner): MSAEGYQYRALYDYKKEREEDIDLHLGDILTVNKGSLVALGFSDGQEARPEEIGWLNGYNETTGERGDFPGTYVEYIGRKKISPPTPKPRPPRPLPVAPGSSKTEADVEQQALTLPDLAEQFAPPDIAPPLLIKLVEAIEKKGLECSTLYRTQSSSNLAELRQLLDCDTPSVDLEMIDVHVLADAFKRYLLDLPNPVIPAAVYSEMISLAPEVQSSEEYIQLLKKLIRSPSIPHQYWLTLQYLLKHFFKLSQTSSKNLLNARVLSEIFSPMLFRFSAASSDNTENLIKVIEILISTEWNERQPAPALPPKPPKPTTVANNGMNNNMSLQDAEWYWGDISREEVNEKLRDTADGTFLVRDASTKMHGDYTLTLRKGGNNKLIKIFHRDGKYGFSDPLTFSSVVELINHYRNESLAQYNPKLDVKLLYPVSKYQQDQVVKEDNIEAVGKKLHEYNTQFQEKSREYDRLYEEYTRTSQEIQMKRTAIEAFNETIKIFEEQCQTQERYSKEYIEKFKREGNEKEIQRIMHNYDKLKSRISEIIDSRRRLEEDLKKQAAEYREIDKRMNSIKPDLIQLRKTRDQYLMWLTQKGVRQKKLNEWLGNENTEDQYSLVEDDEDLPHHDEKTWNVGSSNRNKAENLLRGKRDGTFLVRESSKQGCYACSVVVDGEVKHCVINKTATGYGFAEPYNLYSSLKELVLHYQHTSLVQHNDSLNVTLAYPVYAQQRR

Turning to `Oc1cccc(-c2nc(N3CCOCC3)nc3c2CCN3c2ccncc2)c1` [Example A-09, 3-(2-Morpholin-4-yl-7-pyridin-4-yl-6,7-dihydro-5H-pyrrolo[2,3-d]pyrimidin-4-yl)-phenol], the IC50 on human PI3K(p110α/p85α) is 0.009 µM. Moreover, the inhibition at 2.5 µM in assay [1] was determined as 83%; in assay [2], 96%; in assay [3], 84%.

As to `Oc1cccc(-c2nc(N3CCOCC3)nc3c2CCN3c2ccc3[nH]cnc3c2)c1` [Example A-14, 3-[7-(1H-benzimidazol-5-yl)-2-morpholin-4-yl-6,7-dihydro-5H-pyrrolo[2,3-d]pyrimidin-4-yl]-phenol], the IC50 on human PI3K(p110α/p85α) turned out to be 0.08 µM. In addition, the inhibition at 2.5 µM in assay [1] worked out at 76%; in assay [2], 98%; in assay [3] it was 95%.

As to `Oc1cc(-c2nc(N3CCOCC3)nc3c2CCN3c2ccncc2)ccc1F` [Example A-32, 2-Fluoro-5-(2-morpholin-4-yl-7-pyridin-4-yl-6,7-dihydro-5H-pyrrolo[2,3-d]pyrimidin-4-yl)-phenol trifluoroacetic acid salt], the IC50 on human PI3K(p110α/p85α) is 0.24 µM. Further, the inhibition at 2.5 µM amounted to 81% in assay [1], 81% in assay [2] and 79% in assay [3].

Turning to `Oc1cccc(-c2nc(N3CCOCC3)nc3c2CCN3c2ccnc(N3CCOCC3)c2)c1` [Example A-44, 3-[2-Morpholin-4-yl-7-(2-morpholin-4-yl-pyridin-4-yl)-6,7-dihydro-5H-pyrrolo[2,3-d]pyrimidin-4-yl]-phenol], on human PI3K(p110α/p85α), the 50% inhibitory concentration (IC50) was found to be 0.05 µM. Moreover, the inhibition at 2.5 µM in assay [1] is 69%; in assay [2], 79%; in assay [3] it was 82%.

Consider `CS(=O)(=O)Nc1cccc(N2CCc3c(-c4cccc(O)c4)nc(N4CCOCC4)nc32)c1` [Example A-48, N-{3-[4-(3-hydroxy-phenyl)-2-morpholin-4-yl-5,6-dihydro-pyrrolo[2,3-d]pyrimidin-7-yl]-phenyl}-methane sulfonamide trifluoroacetic acid salt], for which the concentration for half-maximal inhibition (IC50) at human PI3K(p110α/p85α) amounted to 0.02 µM. Also, the figures for the inhibition at 2.5 µM in assay [1], in assay [2] and in assay [3] were 55%, 62% and 67%, respectively.

Turning to `Nc1ncc(-c2nc(N3CCOCC3)nc3c2CCN3c2cccnc2)cn1` [Example B-02, 5-(2-Morpholin-4-yl-7-pyridin-3-yl-6,7-dihydro-5H-pyrrolo[2,3-d]pyrimidin-4-yl)-pyrimidin-2-ylamine], the IC50 on human PI3K(p110α/p85α) stood at 0.03 µM. For the same molecule, the results for the inhibition at 2.5 µM in assay [1], in assay [2] and in assay [3] were 87%, 96% and 95%, respectively.

`Nc1ccc(-c2nc(N3CCOCC3)nc3c2CCN3c2ccncc2)cn1` [Example B-03, 5-(2-Morpholin-4-yl-7-pyridin-4-yl-6,7-dihydro-5H-pyrrolo[2,3-d]pyrimidin-4-yl)-pyridin-2-ylamine]: the IC50 at human PI3K(p110α/p85α) stood at 0.24 µM. Also, the results for the inhibition at 2.5 µM in assay [1], in assay [2] and in assay [3] were 100%, 95% and 97%, respectively.

Consider `COc1ncc(-c2nc(N3CCOCC3)nc3c2CCN3c2cccnc2)c(OC)n1` [Example B-09, 4-(2,4-Dimethoxy-pyrimidin-5-yl)-2-morpholin-4-yl-7-pyridin-3-yl-6,7-dihydro-5H-pyrrolo[2,3-d]pyrimidine], for which the IC50 at human PI3K(p110α/p85α) was determined as 0.26 µM. Further, the inhibition at 2.5 µM in assay [1] turned out to be 45%; in assay [2] it was 56%; in assay [3] it was 67%.

In the case of `c1cc(N2CCc3c(-c4ccc5[nH]cnc5c4)nc(N4CCOCC4)nc32)ccn1` [Example B-22, 4-(1H-benzimidazol-5-yl)-2-morpholin-4-yl-7-pyridin-4-yl-6,7-dihydro-5H-pyrrolo[2,3-d]pyrimidine], the IC50 at human PI3K(p110α/p85α) was found to be 0.3 µM. In addition, the inhibition at 2.5 µM in assay [1] came to 71%; in assay [2] it was 22%; in assay [3], 72%.

As to `NCc1ccc(-c2nc(N3CCOCC3)nc3c2CCN3c2ccncc2)cc1` [Example B-32, 4-(2-Morpholin-4-yl-7-pyridin-4-yl-6,7-dihydro-5H-pyrrolo[2,3-d]pyrimidin-4-yl)-benzylamine hydrochloride], the 50% inhibitory concentration (IC50) at human PI3K(p110α/p85α) amounted to 0.47 µM. The results for the inhibition at 2.5 µM in assay [1], in assay [2] and in assay [3] were 78%, 29% and 67%, respectively.

Regarding `OCc1cc(-c2nc(N3CCOCC3)nc3c2CCN3c2ccncc2)ccc1F` [Example B-35, [2-Fluoro-5-(2-morpholin-4-yl-7-pyridin-4-yl-6,7-dihydro-5H-pyrrolo[2,3-d]pyrimidin-4-yl)-phenyl]-methanol], the half-maximal inhibitory concentration (IC50) at human PI3K(p110α/p85α) came out at 0.87 µM. Besides, the inhibition at 2.5 µM in assay [1] amounted to 78%; in assay [2], 61%; in assay [3], 71%.

With `Nc1ccc(-c2nc(N3CCOCC3)nc3c2CCN3c2ccncc2)nc1` [Example B-55, 6-(2-Morpholin-4-yl-7-pyridin-4-yl-6,7-dihydro-5H-pyrrolo[2,3-d]pyrimidin-4-yl)-pyridin-3-ylamine], the 50% inhibitory concentration (IC50) on human PI3K(p110α/p85α) stood at 0.34 µM. For the same molecule, the inhibition at 2.5 µM in assay [1] was found to be 79%; in assay [2] it was 47%; in assay [3] it was 58%.

On to `CNC(=S)N1CCc2c(-c3cccc(O)c3)nc(N3CCOCC3)nc21` [Example C-55, 4-(3-Hydroxy-phenyl)-2-morpholin-4-yl-5,6-dihydro-pyrrolo[2,3-d]pyrimidine-7-carbothioic acid methylamide trifluoroacetic acid salt], for which the IC50 at human PI3K(p110α/p85α) worked out at 0.05 µM. The figures for the inhibition at 2.5 µM in assay [1], in assay [2] and in assay [3] were 72%, 87% and 89%, respectively.

On to `CC(=O)N1CCc2c(-c3cnc(N)nc3)nc(N3CCOCC3)nc21` [Example D-01, 1-[4-(2-Amino-pyrimidin-5-yl)-2-morpholin-4-yl-5,6-dihydro-pyrrolo[2,3-d]pyrimidin-7-yl]-ethanone], for which, at human PI3K(p110α/p85α), the IC50 worked out at 0.04 µM. Further, the values for the inhibition at 2.5 µM in assay [1], in assay [2] and in assay [3] were 83%, 89% and 92%, respectively.

Turning to `CS(=O)(=O)N1CCc2c(-c3cnc(N)nc3)nc(N3CCOCC3)nc21` [Example D-02, 5-(7-Methanesulfonyl-2-morpholin-4-yl-6,7-dihydro-5H-pyrrolo[2,3-d]pyrimidin-4-yl)-pyrimidin-2-ylamine], the inhibition at 2.5 µM amounted to 81% in assay [1], 87% in assay [2] and 83% in assay [3].

Take `CCNC(=O)N1CCc2c(-c3cnc(N)nc3)nc(N3CCOCC3)nc21` [Example D-03, 4-(2-Amino-pyrimidin-5-yl)-2-morpholin-4-yl-5,6-dihydro-pyrrolo[2,3-d]pyrimidine-7-carboxylic acid ethylamide]: at human PI3K(p110α/p85α), the IC50 is 0.02 µM. Besides, the inhibition at 2.5 µM in assay [1] was 92%; in assay [2] it was 88%; in assay [3] it was 92%.

For the molecule `Nc1ncc(-c2nc(N3CCOCC3)nc3c2CCN3c2cc(C(=O)N3CCOCC3)ccc2F)cn1` [Example D-16, {3-[4-(2-Amino-pyrimidin-5-yl)-2-morpholin-4-yl-5,6-dihydro-pyrrolo[2,3-d]pyrimidin-7-yl]-4-fluoro-phenyl}-morpholin-4-yl-methanone], the IC50 on human PI3K(p110α/p85α) was determined as 0.23 µM. For the same molecule, the inhibition at 2.5 µM in assay [1] came out at 74%; in assay [2], 73%; in assay [3] it was 76%.

In the case of `Nc1ncc(-c2nc(N3CCOCC3)nc3c2CCN3c2ccc(CN3CCN(CCCCF)CC3)cc2)cn1` [Example D-330, 5-(7-{4-[4-(4-fluorobutyl)-piperazin-1-ylmethyl]-phenyl}-2-morpholin-4-yl-6,7-dihydro-5H-pyrrolo[2,3-d]pyrimidin-4-yl)-pyrimidin-2-ylamine], the inhibition at 2.5 µM in assay [1] is 25%; in assay [2], 0%; in assay [3] it was -13%.
